Source: ChEMBL document CHEMBL5236600, “Identification of a Novel Potent CYP4Z1 Inhibitor Attenuating the Stemness of Breast Cancer Cells through Lead Optimization” (J Med Chem, 2022)

Columns and labels:
Assay type in all cases: ADME, cell-based
Cytochrome P450 4Z1 [1] = molecular target: T1, Cytochrome P450 4Z1 (Homo sapiens, UniProt Q86W10); assay: Inhibition of CYP4Z1 in human HEK293T cells using Luciferin-BE as substrate at 1 uM incubated for 30 mins in presence of NADPH by luminescence based assay relative to control; details: HEK-293T, 0.5 h
T1 sequence (Q86W10 whole entry): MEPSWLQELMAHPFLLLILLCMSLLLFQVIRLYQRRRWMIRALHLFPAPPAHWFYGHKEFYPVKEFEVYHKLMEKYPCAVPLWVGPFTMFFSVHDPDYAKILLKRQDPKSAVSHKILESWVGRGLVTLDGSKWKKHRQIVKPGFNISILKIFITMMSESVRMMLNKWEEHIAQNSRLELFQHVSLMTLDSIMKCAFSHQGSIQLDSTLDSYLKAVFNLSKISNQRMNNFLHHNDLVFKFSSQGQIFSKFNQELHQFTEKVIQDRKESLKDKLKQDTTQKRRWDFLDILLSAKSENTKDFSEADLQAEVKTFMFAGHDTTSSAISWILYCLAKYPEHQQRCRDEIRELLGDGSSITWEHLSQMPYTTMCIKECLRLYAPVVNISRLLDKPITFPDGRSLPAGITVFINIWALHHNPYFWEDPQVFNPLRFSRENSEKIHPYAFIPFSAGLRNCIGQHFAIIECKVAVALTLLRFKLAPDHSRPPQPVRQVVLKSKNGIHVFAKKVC

Cytochrome P450 4Z1 [2] = molecular target: T1, Cytochrome P450 4Z1; assay: Inhibition of CYP4Z1 in human HEK293T cells using Luciferin-BE as substrate at 10 uM incubated for 30 mins in presence of NADPH by luminescence based assay relative to control; details: HEK-293T, 0.5 h
Cytochrome P450 4Z1 [3] = molecular target: T1, Cytochrome P450 4Z1; assay: Inhibition of CYP4Z1 in human HEK293T cells using Luciferin-BE as substrate incubated for 30 mins in presence of NADPH by luminescence based assay

Compound	inhibition at 1 µM (Cytochrome P450 4Z1 [1])	inhibition at 10 µM (Cytochrome P450 4Z1 [2])	IC50 (Cytochrome P450 4Z1 [3])
CCc1ccc(N/C=N/O)cc1	33.6%	72.8%	
O=C(O)Cc1ccc(N/C=N/O)cc1	36.5%	54.3%	
CCOC(=O)Cc1ccc(N/C=N/O)cc1	80.4%	89.1%	89.7 nM
